Measured values: patent US20260242419A1, “A CYCLIC PEPTIDE FOR TRAPPING INTERLEUKIN-1 BETA” (Merck Sharp & Dohme LLC, priority 2023, published 2026)
Starred links: 1 amine or outer side, 2 acyl side, 3 side chain; linkers in the order of their positions; H or OH if unused. Non-standard residues stand in square brackets, D forms with d. Residues, ends and D or L forms follow the SMILES beside them. dPro(4R-(4-pyridylmethyl)) = O=C(O)[C@H]1C[C@@H](Cc2ccncc2)CN1; Trp(βS-Me,4-F) = C[C@@H](c1c[nH]c2cccc(F)c12)[C@H](N)C(=O)O; Bip(4'-COOH) = N[C@@H](Cc1ccc(-c2ccc(C(=O)O)cc2)cc1)C(=O)O; dPro(3S-(4-F-Bn)) = O=C(O)[C@@H]1NCC[C@@H]1Cc1ccc(F)cc1; X41 = O=C([C@@H](N[*:1])[C@@H](O)c1ccncc1)[*:2]; Ala(pyrimidin-5-yl) = N[C@@H](Cc1cncnc1)C(=O)O; Phe(4-COOH) = N[C@@H](Cc1ccc(C(=O)O)cc1)C(=O)O; Bip = N[C@@H](Cc1ccc(-c2ccccc2)cc1)C(=O)O; Pro(cis-4-F) = O=C(O)[C@@H]1C[C@H](F)CN1; d(αMeF) = C[C@@](N)(Cc1ccccc1)C(=O)O; hTyr = N[C@@H](CCc1ccc(O)cc1)C(=O)O; cisHyp = O=C(O)[C@@H]1C[C@H](O)CN1; d(αMeD) = C[C@@](N)(CC(=O)O)C(=O)O; 4Pal = N[C@@H](Cc1ccncc1)C(=O)O; aThr = C[C@H](O)[C@H](N)C(=O)O; d(αMeS) = C[C@@](N)(CO)C(=O)O; NMeDab = CN[C@@H](CCN)C(=O)O; Dab = NCC[C@H](N)C(=O)O; Aib = CC(C)(N)C(=O)O

Molecular target: T1, IL-1β (Homo sapiens, UniProt P01584)
T1 construct: purchased BioLegend 579404
Assay: IL-6 assay in MRC5 cells: inhibition of IL-1β induced IL-6 secretion (AlphaLISA)
Assay type: cell-based
Details: inhibition of IL-1β induced IL-6 secretion in MRC5 cells; compound pre-incubated 1 hour with recombinant human IL-1β; read-out: MRC5 IC50
Procedure, shortened: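 Compound was pre-incubated 1 h at ambient temperature with recombinant human IL-1β at 2λ EC80 before adding human lung fibroblast MRC5 cells (3000/well) in EMEM with 0.025% BSA. After overnight culture at 37 °C, 5% CO2, secreted IL-6 in conditioned medium was measured by AlphaLISA; IC50 from 4-parameter logistic fits.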

T1 sequence (P01584 117-269): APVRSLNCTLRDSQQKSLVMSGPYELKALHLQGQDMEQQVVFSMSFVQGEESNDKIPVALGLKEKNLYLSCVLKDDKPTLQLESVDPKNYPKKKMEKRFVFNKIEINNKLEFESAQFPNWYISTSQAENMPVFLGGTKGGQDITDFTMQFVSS

| Structure (SMILES) | IC50 |
| --- | --- |
| C[C@@H](c1c[nH]c2cccc(F)c12)[C@@H]1NC(=O)[C@@H]2C[C@H](F)CN2C(=O)CNC(=O)[C@H](Cc2ccc(C(=O)O)cc2)NC(=O)[C@H](Cc2ccncc2)NC(=O)[C@H](Cc2ccc(-c3ccc(C(=O)O)cc3)cc2)NC(=O)[C@H]2C[C@@H](Cc3ccncc3)CN2C(=O)CNC(=O)[C@H](CCN)NC(=O)[C@H](CCC(N)=O)NC(=O)[C@H](CCc2ccc(O)cc2)NC(=O)[C@@](C)(CC(=O)O)NC(=O)[C@H](Cc2c[nH]c3ccccc23)NC(=O)[C@H](CO)NC(=O)C(C)(C)NC1=O [Example 256] (cyclo([Bip(4'-COOH)][4Pal][Phe(4-COOH)]G[Pro(cis-4-F)][Trp(βS-Me,4-F)][Aib]SW[d(αMeD)][hTyr]Q[Dab]G[dPro(4R-(4-pyridylmethyl))])) | 0.012 nM |
| C[C@H](O)[C@@H]1NC(=O)[C@@](C)(Cc2ccccc2)NC(=O)[C@H](Cc2c[nH]c3ccccc23)NC(=O)[C@H](CO)NC(=O)C(C)(C)NC(=O)[C@H]([C@@H](C)c2c[nH]c3cccc(F)c23)NC(=O)[C@@H]2C[C@H](F)CN2C(=O)CNC(=O)[C@H](Cc2ccc(C(=O)O)cc2)NC(=O)[C@H](Cc2ccncc2)NC(=O)[C@H](Cc2ccc(-c3ccc(C(=O)O)cc3)cc2)NC(=O)[C@H]2C[C@@H](Cc3ccncc3)CN2C(=O)CNC(=O)[C@H](CCN)NC(=O)[C@H](CCC(N)=O)NC1=O [Example 257] (cyclo([Bip(4'-COOH)][4Pal][Phe(4-COOH)]G[Pro(cis-4-F)][Trp(βS-Me,4-F)][Aib]SW[d(αMeF)][aThr]Q[Dab]G[dPro(4R-(4-pyridylmethyl))])) | 0.021 nM |
| C[C@@H](c1c[nH]c2cccc(F)c12)[C@@H]1NC(=O)[C@@H]2C[C@H](F)CN2C(=O)CNC(=O)[C@H](Cc2ccc(C(=O)O)cc2)NC(=O)[C@H](Cc2ccncc2)NC(=O)[C@H](Cc2ccc(-c3ccc(C(=O)O)cc3)cc2)NC(=O)[C@H]2C[C@@H](Cc3ccncc3)CN2C(=O)CNC(=O)[C@H](CCN)NC(=O)[C@H](CCC(N)=O)NC(=O)[C@H](CCC(=O)O)NC(=O)[C@@](C)(Cc2ccccc2)NC(=O)[C@H](Cc2c[nH]c3ccccc23)NC(=O)[C@H](CO)NC(=O)C(C)(C)NC1=O [Example 258] (cyclo([Bip(4'-COOH)][4Pal][Phe(4-COOH)]G[Pro(cis-4-F)][Trp(βS-Me,4-F)][Aib]SW[d(αMeF)]EQ[Dab]G[dPro(4R-(4-pyridylmethyl))])) | 0.02 nM |
| C[C@@H](c1c[nH]c2cccc(F)c12)[C@@H]1NC(=O)[C@@H]2C[C@H](F)CN2C(=O)CNC(=O)[C@H](Cc2ccc(C(=O)O)cc2)NC(=O)[C@H](Cc2ccncc2)NC(=O)[C@H](Cc2ccc(-c3ccc(C(=O)O)cc3)cc2)NC(=O)[C@H]2C[C@@H](Cc3ccncc3)CN2C(=O)CNC(=O)[C@H](CCN)NC(=O)[C@H](CCC(N)=O)NC(=O)[C@H](CC(=O)O)NC(=O)[C@@](C)(Cc2ccccc2)NC(=O)[C@H](Cc2c[nH]c3ccccc23)NC(=O)[C@H](CO)NC(=O)C(C)(C)NC1=O [Example 259] (cyclo([Bip(4'-COOH)][4Pal][Phe(4-COOH)]G[Pro(cis-4-F)][Trp(βS-Me,4-F)][Aib]SW[d(αMeF)]DQ[Dab]G[dPro(4R-(4-pyridylmethyl))])) | 0.014 nM |
| COC[C@@]1(C)NC(=O)[C@H](Cc2c[nH]c3ccccc23)NC(=O)[C@H](CO)NC(=O)C(C)(C)NC(=O)[C@H]([C@@H](C)c2c[nH]c3cccc(F)c23)NC(=O)[C@@H]2C[C@H](F)CN2C(=O)CNC(=O)[C@H](Cc2ccc(C(=O)O)cc2)NC(=O)[C@H](Cc2ccncc2)NC(=O)[C@H](Cc2ccc(-c3ccc(C(=O)O)cc3)cc2)NC(=O)[C@H]2C[C@@H](Cc3ccncc3)CN2C(=O)CNC(=O)[C@H](CCN)NC(=O)[C@H](CCC(N)=O)NC(=O)[C@H](Cc2cncnc2)NC1=O [Example 260] (cyclo([Bip(4'-COOH)][4Pal][Phe(4-COOH)]G[Pro(cis-4-F)][Trp(βS-Me,4-F)][Aib]SW[d(αMeS)](Me)[Ala(pyrimidin-5-yl)]Q[Dab]G[dPro(4R-(4-pyridylmethyl))])) | 0.013 nM |
| COC[C@@]1(C)NC(=O)[C@H](Cc2c[nH]c3ccccc23)NC(=O)[C@H](CO)NC(=O)C(C)(C)NC(=O)[C@H]([C@@H](C)c2c[nH]c3cccc(F)c23)NC(=O)[C@@H]2C[C@H](F)CN2C(=O)CNC(=O)[C@H](Cc2ccc(C(=O)O)cc2)NC(=O)[C@H](Cc2ccncc2)NC(=O)[C@H](Cc2ccc(-c3ccc(C(=O)O)cc3)cc2)NC(=O)[C@H]2C[C@@H](Cc3ccncc3)CN2C(=O)CNC(=O)[C@H](CCN)NC(=O)[C@H](CCC(N)=O)NC(=O)[C@H]([C@H](C)O)NC1=O [Example 261] (cyclo([Bip(4'-COOH)][4Pal][Phe(4-COOH)]G[Pro(cis-4-F)][Trp(βS-Me,4-F)][Aib]SW[d(αMeS)](Me)[aThr]Q[Dab]G[dPro(4R-(4-pyridylmethyl))])) | 0.017 nM |
| C[C@@H](c1c[nH]c2cccc(F)c12)[C@@H]1NC(=O)[C@@H]2C[C@H](F)CN2C(=O)CNC(=O)[C@H](Cc2ccc(C(=O)O)cc2)NC(=O)[C@H](Cc2ccncc2)NC(=O)[C@H](Cc2ccc(-c3ccc(C(=O)O)cc3)cc2)NC(=O)[C@H]2C[C@@H](Cc3ccncc3)CN2C(=O)CNC(=O)[C@H](CCN)N(C)C(=O)[C@H](CCC(N)=O)NC(=O)[C@H](Cc2cncnc2)NC(=O)C(C)(C)NC(=O)[C@H](Cc2c[nH]c3ccccc23)NC(=O)[C@H](CO)NC(=O)C(C)(C)NC1=O [Example 262] (cyclo([Bip(4'-COOH)][4Pal][Phe(4-COOH)]G[Pro(cis-4-F)][Trp(βS-Me,4-F)][Aib]SW[Aib][Ala(pyrimidin-5-yl)]Q[NMeDab]G[dPro(4R-(4-pyridylmethyl))])) | 0.02 nM |
| C[C@@H](c1c[nH]c2cccc(F)c12)[C@@H]1NC(=O)[C@@H]2C[C@H](F)CN2C(=O)CNC(=O)[C@H](Cc2ccc(C(=O)O)cc2)NC(=O)[C@H](Cc2ccncc2)NC(=O)[C@H](Cc2ccc(-c3ccc(C(=O)O)cc3)cc2)NC(=O)[C@H]2[C@@H](Cc3ccc(F)cc3)CCN2C(=O)CNC(=O)[C@H](CCN)NC(=O)[C@H](CCC(N)=O)NC(=O)[C@H]([C@@H](O)c2ccncc2)NC(=O)[C@@](C)(CC(=O)O)NC(=O)[C@H](Cc2c[nH]c3ccccc23)NC(=O)[C@H](CO)NC(=O)C(C)(C)NC1=O [Example 263] (cyclo([Bip(4'-COOH)][4Pal][Phe(4-COOH)]G[Pro(cis-4-F)][Trp(βS-Me,4-F)][Aib]SW[d(αMeD)][X41]Q[Dab]G[dPro(3S-(4-F-Bn))])) | 0.017 nM |
| C[C@@H](c1c[nH]c2cccc(F)c12)[C@@H]1NC(=O)[C@@H]2C[C@H](O)CN2C(=O)CNC(=O)[C@H](Cc2ccc(C(=O)O)cc2)NC(=O)[C@H](Cc2ccncc2)NC(=O)[C@H](Cc2ccc(-c3ccccc3)cc2)NC(=O)[C@H]2C[C@@H](Cc3ccncc3)CN2C(=O)CNC(=O)[C@H](CCN)NC(=O)[C@H](CCC(N)=O)NC(=O)[C@H](Cc2cncnc2)NC(=O)[C@@](C)(CC(=O)O)NC(=O)[C@H](Cc2c[nH]c3ccccc23)NC(=O)[C@H](CO)NC(=O)C(C)(C)NC1=O [Example 264] (cyclo([Bip][4Pal][Phe(4-COOH)]G[cisHyp][Trp(βS-Me,4-F)][Aib]SW[d(αMeD)][Ala(pyrimidin-5-yl)]Q[Dab]G[dPro(4R-(4-pyridylmethyl))])) | 0.017 nM |
